Measured values: patent publication US8530235B2, “Medium that supports culture of an oocyte and modulation of granulosa cell apoptosis” (Adelaide Research & Innovation Pty Ltd., priority 2005, dated 2013)

Columns and labels:
cumulus cells [1] = test: Staurosporine-induced cumulus cell apoptosis in OOX (TUNEL); assay type: cell-based, Bovine; settings: for incidence of CC apoptosis: OOX alone, without 41%; for CC apoptosis of treated OOX exposed to staurosporine: 10% BMP-15 or 10 ng/ml BMP-6
Procedure: CC apoptoic DNA was detected using TUNEl (Roche Diagnostic, Penzberg, Germany) according to the manufacturer's instructions. […] Complexes were then permeabilized in 0.11/u Triton X-100 in 0.1% sodium citrate for 1 hour at room temperature and washed 3 times in PBS/BSA. The complexes were then incubated in fluorescein-conjugated dUTP and terminal deoxynucleotide transferase (TUNEl reagents, Roche) for 1 hour at 37° C. in the dark. Positive controls were incubated in DNAse 1 (0.005 U/µl), which cleaves all DNA, for 20 minutes at room temperature and washed twice in PBS/BSA before TUNEl. Negative controls were incubated in fluorescein-dUTP in the absence of TdT. After TUNEl, complexes were washed twice in PBS/BSA and counterstained with propidium iodide 0.5 μg/ml (PI) plus RNase A (0.1 mg/ml) for 1 hour at room temperature in the dark to label all nuclei. Complexes were then washed twice in PBS/BSA and mounted with slight coverslip compression in VectaShield anti-bleaching solution (Vector labs, Burlingame, Calif.), and stored in the dark at 4° C. for confocal analysis. […] These optical section images were acquired and saved as independent colour channels (green, apoptotic cumulus fluorescence and red, nuclear cumulus fluorescence). The captured images were then processed in Scanalytics IPlab software Version 3.6. (Scanalytics, Fairfax, Va.). Quantification of CC number (for each colour channel) was independently measured using a macro script utilizing an auto segmentation filter for each optical section percentile (3 optical “z”-plane sections for each complex). A percentage of apoptotic nuclei were generated for each slice and the three percentile values were then averaged to achieve a representation of the total apoptotic nuclei percentage for the whole complex. These processes were repeated separately on each individual complex. A preliminary experiment was conducted to determine the apoptotic effect of staurosporine on bovine CC, which induced apoptosis in a dose-dependent manner (range; 0.1-100 μM, data not shown). The aim of this experiment was to determine whether OSF could prevent CC from undergoing apoptosis induced by staurosporine. OOX alone or co-cultured with 35 DO, 10 ng/ml BMP-6 or 10% (v/v) BMP-15, and were then exposed to either 0.1 μM or 1.0 μM staurospourine for the last 6 hours of the 24 hour incubation period. Three replicates of this experiment were carried out using 10 OOX per treatment group per replicate experiment.

cumulus cells [2] = test: Cumulus cell apoptosis in oocytectomized complexes (OOX) and COC, TUNEL with confocal microscopy; assay type: cell-based, Bovine
Procedure: Bovine ovaries were collected from local abattoir and transported to the laboratory in warm saline (30-35° C.). Cumulus-oocyte complexes (COC) were aspirated from antral follicles (2- to 8-mm diameter) using an 18-gauge needle and a 10-ml syringe containing ˜2 ml aspiration media (Hepes-buffered Tissue Cultured Medium-199: TCM-199, ICN Biochemicals, Irvine, Calif., USA) supplemented with 50 μg/ml kanamycin (Sigma-Aldrish, St. louis, Mo.), 4 mg/ml fatty acid-free bovine serum albumin (FAF-BSA) (ICPbio ltd, Auckland, NZ). Intact COC with compact cumulus vestment greater than five cell layers and evenly pigmented cytoplasm were selected under a dissecting microscope and washed twice in Hepes-buffered TCM-199 and once in corresponding culturing media.
The cytoplasm of each oocyte was microsurgically removed from the COC (oocytectomy) using a micromanipulator as described in Buccione et al (Buccione et al. (1990) Dev Biol 138, 16-25.). The resulting oocytectomized complex (OOX) consists of a hollow zona pellucida surrounded by several layers of intact CC.
Denuded oocytes (DO) were generated by removing CC from COC by vortexing for approximately 4 minutes in 2 ml H-TCM-199/BSA. Any remaining CC were removed by repeated passage of the oocytes through a fine-bore fire-polished glass pipette in H-TCM-199/BSA.
CC apoptoic DNA was detected using TUNEl (Roche Diagnostic, Penzberg, Germany) according to the manufacturer's instructions. Briefly, following culture COC and OOX complexes were washed twice in PBS (pH 7.4) containing 1% BSA, fixed in 4% paraformaldehyde in PBS (pH 7.4) overnight at 4° C. and washed twice with PBS/BSA before placing on Cell-Tak-coated coverslips (Beckton Dickinson Biosciences, Franklin lakes, N.J.). Complexes were then permeabilized in 0.11/u Triton X-100 in 0.1% sodium citrate for 1 hour at room temperature and washed 3 times in PBS/BSA. The complexes were then incubated in fluorescein-conjugated dUTP and terminal deoxynucleotide transferase (TUNEl reagents, Roche) for 1 hour at 37° C. in the dark. Positive controls were incubated in DNAse 1 (0.005 U/µl), which cleaves all DNA, for 20 minutes at room temperature and washed twice in PBS/BSA before TUNEl. Negative controls were incubated in fluorescein-dUTP in the absence of TdT. After TUNEl, complexes were washed twice in PBS/BSA and counterstained with propidium iodide 0.5 μg/ml (PI) plus RNase A (0.1 mg/ml) for 1 hour at room temperature in the dark to label all nuclei. Complexes were then washed twice in PBS/BSA and mounted with slight coverslip compression in VectaShield anti-bleaching solution (Vector labs, Burlingame, Calif.), and stored in the dark at 4° C. for confocal analysis.
Apoptosis in COC and OOX was visualised and quantified using confocal microscopy. Dual fluorescence emission from CC was detected using a Nikon C1 Confocal Scanning Head and a Nikon TE2000E microscope (Nikon, Tokyo, Japan). Simultaneous emission capture of the apoptotic signal (fluorescein, lacer excitation 488 nm, emission 510-530 nm) and the nuclear signal (propidium iodide, excitation lacer 532, emission 590-640 nm) was performed.
In order to generate an accurate representation of the overall apoptotic incidence for all complexes, the depth of each complex was measured through a Z series to divide the construct into three percentiles (optical Z plane sections) at 25%, 50% and 75%. These optical section images were acquired and saved as independent colour channels (green, apoptotic cumulus fluorescence and red, nuclear cumulus fluorescence). The captured images were then processed in Scanalytics IPlab software Version 3.6. (Scanalytics, Fairfax, Va.). Quantification of CC number (for each colour channel) was independently measured using a macro script utilizing an auto segmentation filter for each optical section percentile (3 optical “z”-plane sections for each complex).

[3] = tested on: cumulus expansion of oocytectomised (OOX) complexes; test: FSH-induced cumulus expansion score of OOX complexes; assay type: cell-based, mice
Procedure: Members of the TGF-β superfamily are prime candidates for the mouse cumulus expansion-enabling factor (CEEF). This study was conducted to examine TGF-β superfamily processes regulating cumulus expansion. COCs were collected from eGG-primed mice and the oocyte microsurgically removed to generate oocytectomised (OOX) complexes. […] The type-I receptors for GDF9 and […] are ALK5 and ALK4, respectively. We tested the ability of an ALK4/5/7 kinase inhibitor to neutralize cumulus expansion.

cumulus-oocyte complexes = test: Study IV: oocyte developmental competence after IVM, IVF and embryo culture; assay type: cell-based, Bovine
Procedure: Unless otherwise specified, all chemicals and reagents were purchased from Sigma (St Louis, Mo.). Bovine ovaries were collected from local abattoirs and transported to the laboratory in warm saline (30-35° C.). COCs were aspirated from antral follicles (3 to 5 mm diameter) using an 18-gauge needle and a 10-ml syringe containing ˜2 ml aspiration medium (Hepes-buffered. Tissue Cultured Medium-199; TCM-199. ICN Biochemicals, Irvine, Calif., USA) supplemented with 50 μg/ml kanamycin, 0.5 mM sodium pyruvate, 50 μg/ml heparin and 4 mg/ml fatty acid-free bovine serum albumin (FAF-BSA; ICPbio Ltd, Aukland, NZ). Intact COCs with compact cumulus vestments>˜5 cell layers and evenly pigmented cytoplasm were selected under a dissecting microscope and washed twice in Hepes-buffered TCM-199 and once in Hepes-buffered TCM-199 supplemented with 10% fetal calf serim (FCS) (Invitrogen, Carlsbad, Calif.). The basic medium for oocyte maturation was Bovine VitroMat (Cook Australia, Eight Mile Plains, Qld, Australia), a medium based on the ionic composition of bovine follicular fluid. […] Complexes were cultured in pre-equilibrated 300 ? l drops overlaid with mineral oil and incubated at 39° C. with 5% CO2 in humidified air for 24 hour. […]
Recombinant mouse GDF9 and recombinant ovine BMP15 were produced and partially purified in-house as previously described using transfected 293 human embryonic kidney cell lines (293H) originally donated by O. Ritvos (University of Helsinki). Control conditioned medium (hereafter designated ‘293H’) was produced from untransfected 293H cells and subjected to the same chromatography procedures as GDF9 and BMP15 conditioned media.
Consequently, SB-431542 potently antagonizes the ALK 4/5 ligands; TGF-β1, the activins and GDF9, without affecting BMP signalling (Inman et al., 2002; Gilchrist et al., 2006). […] Follistatin-288 was generously donated by S. Shimasaki (University of California San Diego, USA) and we have previously shown that this binding protein antagonizes the bioactivities of native OSFs and recombinant BMP15 in CCs.
In vitro production of embryos was undertaken using defined, serum-free media (Bovine Vitro series of media, Cook Australia). Frozen semen from a single bull of proven fertility was used in all experiments. Briefly, thawed semen was layered over a discontinuous (45%: 90%) Percoll gradient (Amersham Bioscience) and centrifuged (RT) for 20-25 mins at 700 g. The supernatant was removed and the sperm pellet was washed with 500 μl Bovine VitroWash (Cook Australia) and centrifuged for a further 5 minutes at 200 g. Spermatozoa were resuspended with IVF medium (Bovine VitroFert, Cook Australia), then added to the fertilization media drops (Bovine VitroFert, supplemented with 0.01 mM heparin, 0.2 mM penicillamine and 0.1 mM hypotaurine) at a final concentration of 1×106 spermatozoa/ml. COCs were inseminated at a density of 10 μl of IVF medium per COC for 24 h, at 39° C. in 6% CO2 in humidified air.
CCs were removed by gentle pipetting 23-24 h post insemination and five presumptive zygotes were transferred into 20 μl drops of pre-equilibrated Cook Bovine VitroCleave medium (Cook Australia) and cultured under mineral oil at 38.5° C. in 7% O2, 6% CO2, balance N2, for five days (day 1 to day 5).
On Day 5, embryos were transferred in groups of 5-6 to 20 μl drops of pre-equilibrated Bovine VitroBlast (Cook Australia) at 38.5° C. overlaid with mineral oil and cultured to Day 8. Embryos were assessed for quality at Day 8 according to the definitions presented in the Manual of the International Embryo Transfer Society (Stringfellow, 1998) and were performed independently and blinded by an experienced bovine embryologist.
Cell counts were performed using a modified version of the technique described by (Fouladi-Nashta et al., 2005). […]

CN[C@@H]1C[C@H]2O[C@@](C)([C@@H]1OC)n1c3ccccc3c3c4c(c5c6ccccc6n2c5c31)C(=O)NC4 [staurosporine, reference compound] was tested, and the “incidence of CC apoptosis” value (cumulus cells [1]; 0.1 μM staurosporine for the last 6 h of 24 h) was 51% and the “incidence of CC apoptosis” value (cumulus cells [1]; 1.0 μM staurosporine for the last 6 h of 24 h) was 74%.

With follistatin [reference compound] the “apoptosis of BMP-15-treated OOXs with antagonist” value (cumulus cells [2]; OOX + 10% v/v BMP-15, follistatin 0-100 μg/ml) was “dose-dependent increase in apoptosis”, the “antagonism of the anti-apoptotic effects of oocytes on cumulus cells” value (cumulus cells [2]; OOX + 25 DO, 50 μg/ml follistatin or 20 μg/ml BMP-6 NAb alone) was about 50% and the “cumulus expansion score with follistatin” value ([3]; OOX complexes co-cultured with oocytes, no significant effect (p>0.05)) was 2.7±0.2. The “cumulus expansion score with follistatin” value ([3]; response of OOX complexes to activin) was 0, the “blastocyst development of control COCs treated with antagonist” value (cumulus-oocyte complexes; 4 μM SB-431542 or 10 μg/ml follistatin-288, compared to untreated COCs) was “significantly (P<0.05) decreased” and the “cleavage rate of oocytes” value (cumulus-oocyte complexes; 10 μg/ml follistatin-288 during IVM, regardless of BMP15 treatment, control 76.2±1.3, p=0.007, in %) was 71.8±1.3. The “increase of blastocyst yields by GDF9 or BMP15 on addition of the respective antagonist” value (cumulus-oocyte complexes; SB-431542 against GDF9, follistatin against BMP15) was “ablated”.

B1: activin A: TGF-β superfamily member, ligand of ALK4 (protein, UniProt P08476 311-426, looked up)
Inhibin beta A chain: GLECDGKVNICCKKQFFVSFKDIGWNDWIIAPSGYHANYCEGECPSHIAGTSGSSLSFHSTVINHYRMRGHSPFANLKSCCVPTKLRPMSMLYYDDGQNIIKKDIQNMIVEECGCS
modifications: Inhibin beta A chain
notes: TGF-β superfamily member, ligand of ALK4
In the case of B1, the cumulus expansion score ([3]; score 0 (no expansion) to +4 (maximum expansion), mean ±SEM, OOX complexes with FSH) is reported as 2.6±0.1.

B2: gremlin: BMP antagonist (BMP-2, BMP-4, BMP-7) obtained from R&D systems (protein, UniProt O60565 25-184, looked up)
Gremlin-1: KKKGSQGAIPPPDKAQHNDSEQTQSPQQPGSRNRGRGQGRGTAMPGEEVLESSQEALHVTERKYLKRDWCKTQPLKQTIHEEGCNSRTIINRFCYGQCNSFYIPRHIRKEEGSFQSCSFCKPKKFTTMMVTLNCPELQPPTKKKRVTRVKQCRCISIDLD
In the case of B2, the “antagonism of the inhibitory effect of BMP-7 on CC apoptosis” value (cumulus cells [2]; OOX + 100 ng/ml BMP-7, 2 μg/ml gremlin, not when BMP-15 was present) is reported as “significantly (P<0.001) reversed” and the “apoptosis of BMP-15-treated OOXs with antagonist” value (cumulus cells [2]; OOX + 10% BMP-15, increasing dose of gremlin (0-40 μg/ml)) is reported as “not significantly increased”.

B3: BMP-6: Recombinant human BMP-6 obtained from R&D systems (protein, UniProt P22004 375-513, looked up)
Bone morphogenetic protein 6: SASSRRRQQSRNRSTQSQDVARVSSASDYNSSELKTACRKHELYVSFQDLGWQDWIIAPKGYAANYCDGECSFPLNAHMNATNHAIVQTLVHLMNPEYVPKPCCAPTKLNAISVLYFDDNSNVILKKYRNMVVRACGCH
With B3 the “effect on incidence of cumulus cell apoptosis” value (cumulus cells [2]; OOX cultured with increasing doses (GDF-9 0-175 ng/ml, BMP-6 0-100 ng/ml, BMP-15 0-20% v/v, 5-50 DO), presence or absence of FSH) was “significantly decreased”, the “effect on CC apoptosis, test for additive effect” value (cumulus cells [2]; OOX treated with DO, 10 ng/ml BMP-6 and/or 10% v/v BMP-15) was “significantly (P<0.001) decreased” and the “CC apoptosis of treated OOX exposed to staurosporine” value (cumulus cells [1]; 0.1 μM staurosporine) was 21%. The “CC apoptosis of treated OOX exposed to staurosporine” value (cumulus cells [1]; 1 μM staurosporine) was 31%.
